Several values for one entry are separate records, joined by “and”; a condition that tells them apart may be missing. Identical values can stand only once.
Experiments:
[1] = Effective concentration expressed as antiparasitic activity against Leishmania promastigotes (Leishmania donovani); NA = Not active; format: functional
Plasmodium falciparum [2] = assay: Antiparasitic activity against chloroquine-resistant Plasmodium falciparum W2; format: functional, organism-based
Plasmodium falciparum [3] = assay: Antiparasitic activity against Plasmodium falciparum D6; format: functional, organism-based
[4] = Antiparasitic activity against Leishmania promastigotes (Leishmania donovani); format: functional

| SMILES | EC50 [1] | EC50 (Plasmodium falciparum [2]) | EC50 (Plasmodium falciparum [3]; Plasmodium falciparum) [µM] | EC50 (Plasmodium falciparum [3]) | EC50 [4] | EC50 (Plasmodium falciparum [2]; Plasmodium falciparum) [µM] |
| --- | --- | --- | --- | --- | --- | --- |
| COc1ccc(CN(CCCCN)Cc2ccc(OC)cc2OC)c(OC)c1.O=C(O)C(F)(F)F | Not Active | Not Active | 7.76 |  |  |  |
| NCCCCN(Cc1ccccc1)Cc1ccncc1.O=C(O)C(F)(F)F | Not Active | Not Active |  | Not Active |  |  |
| NCCCN(Cc1ccc(O)cc1)Cc1ccc(O)cc1.O=C(O)C(F)(F)F | Not Active | Not Active |  | Not Active |  |  |
| NCCCN(Cc1ccncc1)Cc1ccncc1.O=C(O)C(F)(F)F | Not Active | Not Active |  | Not Active |  |  |
| NCCCCN(Cc1ccc(O)cc1)Cc1ccc(O)cc1.O=C(O)C(F)(F)F | Not Active | Not Active |  | Not Active |  |  |
| COc1ccc(CN(CCCN)Cc2ccc(OC)c(O)c2)cc1O.O=C(O)C(F)(F)F | Not Active | Not Active |  | Not Active |  |  |
| NCCCN(Cc1ccccc1)Cc1ccc(Cc2ccncc2)cc1.O=C(O)C(F)(F)F | Not Active | Not Active |  | Not Active |  |  |
| CC(C)c1ccc(CN(CCCCN)Cc2ccccc2)cc1 |  |  | 9.66 |  | 1.88 µM | 10.1 |
| NCCCCN(Cc1ccccc1)Cc1ccc(Cl)cc1.O=C(O)C(F)(F)F |  | Not Active |  | Not Active | 1.61 µM |  |
| COc1ccc(CN(CCCN)Cc2ccc(OC)cc2)cc1.O=C(O)C(F)(F)F |  |  |  | Not Active | 10 µM | 9.34 |
| CC(C)c1ccc(CN(CCCN)Cc2ccc(C(C)C)cc2)cc1.O=C(O)C(F)(F)F |  |  |  | Not Active | 2.65 µM | 9.5 |
| COc1ccc(CN(CCCN)Cc2ccc(OC)cc2OC)c(OC)c1.O=C(O)C(F)(F)F |  |  |  | Not Active | 20.5 µM | 9.42 |
| Cc1ccc(COc2ccc(CN(CCCN)Cc3ccc(OCc4ccc(C)cc4)cc3)cc2)cc1 |  | 4.6 µM | 1.42 | 1.41 µM | 1.2 µM and 1.07 µM | 3.59 |
| NCCCN(Cc1ccc(OCc2c(F)c(F)c(F)c(F)c2F)cc1)Cc1ccc(OCc2c(F)c(F)c(F)c(F)c2F)cc1 |  | 3.29 µM | 2.24 | 2.68 µM | 3.81 µM and 1.95 µM | 3.16 |
| CC(C)(C)c1ccc(COc2ccc(CN(CCCCN)Cc3ccc(OCc4ccc(C(C)(C)C)cc4)cc3)cc2)cc1 |  | 6.42 µM and 2.09 µM | 1.07 |  | 8.92 µM and 3 µM |  |
| CCCCN(CCCC)CCCN.O=C(O)C(F)(F)F |  | Not Active | 6.33 |  | 4.66 µM |  |
| CCCCOc1ccc(CN(CCCN)Cc2ccc(OCCCC)cc2)cc1 |  | 6.44 µM | 4.37 | 4.1 µM | 1.22 µM and 1.27 µM | 6.64 |
| COc1cc(CN(CCCN)Cc2ccc(O)c(OC)c2)ccc1O.O=C(O)C(F)(F)F | Not Active | Not Active |  | Not Active |  |  |
| COc1ccc(CN(CCCCN)Cc2ccc(OC)c(O)c2)cc1O.O=C(O)C(F)(F)F | Not Active | Not Active |  | Not Active |  |  |
| NCCCN(Cc1ccc(OCCCc2ccccc2)cc1)Cc1ccc(OCCCc2ccccc2)cc1 |  | 3.44 µM | 1.88 | 2.01 µM | 0.94 µM and 1 µM | 5.34 |
